US7105483B2, “Phosphinic pseudopeptide derivatives for the selective inhibition of the C-terminal active site of angiotensin I converting enzyme (ACE)” (Commissariat a l'Energie Atomique, priority 2002, dated 2006)
Like-named read-outs stand apart in the source and are kept apart here.

How the values were obtained:
[1] = system: cleavage of the peptide Ac-SDKP; assay: In vivo cleavage of the peptide Ac-SDKP in mice; details: 10 mg/kg of body weight, versus saline control
Description: (§1) This study is performed on batches of male C57BL6/J mice (Iffa Credo) weighing 20 to 23 g each, each batch comprising 6 mice.
(§2) To do this, the mice are anaesthetized by means of an intraperitoneal administration of sodium pentobarbital (Sanofi) at a dose of 80 mg/kg of body weight. The right carotid artery is isolated and a catheter (PE10, 0.28×0.61, A-M Systems, Inc.) is inserted into this artery to allow the withdrawal of blood samples, while another catheter (FEP, 0.12×0.67, Carnegie Medecin) is inserted into the ipsilateral jugular vein to allow the administration of the substances. Throughout the experiment, the body temperature of the mice is maintained at 38° C. […]
(§3) Samples of arterial blood, of about 50 μl, are withdrawn 30, 60 and 90 seconds after injection of the angiotensin I mixture or of the bradykinin mixture to the mice that received these mixtures, and 1, 5, 10 and 15 minutes after the start of injection of the Ac-SDKP mixture to the mice that received the latter mixture. […] The exact amounts of blood withdrawn are determined by reweighing the tubes. […]

[2] = system: conversion of angiotensin I into angiotensin II; assay: In vivo cleavage of angiotensin I to angiotensin II in mice; details: perfusion over 30 minutes, C57BL6/J mice
Description: as §1, §2, §3

[3] = biological target: C-terminal site of human recombinant ACE (Homo sapiens, UniProt P12821); assay: Inhibition constants with respect to the C-terminal site of ACE (quenched-fluorescence substrate); format: biochemical; details: first HPLC fraction; substrate Mca-Ala-Ser-Asp-Lys-DpaOH; 25° C., pH 6.8, 50 mM HEPES, 10 mM CaCl2, 200 mM NaCl
Text: (§4) Human recombinant ACE is used for this determination. Curves of inhibition of ACE with pseudopeptides A to G are obtained using the quenched-fluorescence substrate Mca-Ala: Mca-Ala-Ser-Asp-Lys-DpaOH (Mca: […]; DpaOH: N-3-(2,4-dinitrophenyl)-L-2,3-diaminopropionyl).
(§5) The first fraction collected during the purification of each of the pseudopeptides A to G by HPLC (peak 1 of FIG. 2 for pseudopeptide G) is used for these tests.
(§6) From the inhibition profiles obtained with this substrate, for each pseudopeptide A to G, it is possible to determine the constants Ki N and Ki C by following the procedure described by Dive et al..
(§7) The inhibition experiments were performed at 25° C., pH 6.8, 50 mM HEPES, 10 mM, CaCl2, 200 mM NaCl.

[4] = biological target: N-terminal site of human recombinant ACE (Homo sapiens, UniProt P12821); assay: Inhibition constants with respect to the N-terminal site of ACE (quenched-fluorescence substrate); format: biochemical; details: first HPLC fraction; substrate Mca-Ala-Ser-Asp-Lys-DpaOH; 25° C., pH 6.8, 50 mM HEPES, 10 mM CaCl2, 200 mM NaCl
Text: as §4, §5, §6, §7

ACE = ACE (Homo sapiens, UniProt P12821); assay: Inhibitory power of HPLC-isolated diastereoisomers/fractions with respect to ACE; format: biochemical; details: HPLC-isolated diastereoisomer / first fraction (peak 1)
Text: In this figure, 4 peaks corresponding to the 4 diastereoisomers present in pseudopeptide G are observed (these 4 peaks have an identical mass spectrum, mass observed MH^+=618.23, expected mass=617.23).

cleavage of bradykinin = assay: In vivo cleavage (protection) of bradykinin in mice; details: 10 mg/kg of body weight; protection with perindopril arbitrarily set at 100%; C57BL6/J mice
Description: as §1, §2, §3

[5] = rats; cited from earlier work
[6] = mice; cited from earlier work
[7] = system: degradation of the peptide N-acetyl Ser-Asp-Lys-Pro (Ac-SDKP); details: mice, reference [9]; cited from earlier work

Sequence of ACE (P12821 30-1306): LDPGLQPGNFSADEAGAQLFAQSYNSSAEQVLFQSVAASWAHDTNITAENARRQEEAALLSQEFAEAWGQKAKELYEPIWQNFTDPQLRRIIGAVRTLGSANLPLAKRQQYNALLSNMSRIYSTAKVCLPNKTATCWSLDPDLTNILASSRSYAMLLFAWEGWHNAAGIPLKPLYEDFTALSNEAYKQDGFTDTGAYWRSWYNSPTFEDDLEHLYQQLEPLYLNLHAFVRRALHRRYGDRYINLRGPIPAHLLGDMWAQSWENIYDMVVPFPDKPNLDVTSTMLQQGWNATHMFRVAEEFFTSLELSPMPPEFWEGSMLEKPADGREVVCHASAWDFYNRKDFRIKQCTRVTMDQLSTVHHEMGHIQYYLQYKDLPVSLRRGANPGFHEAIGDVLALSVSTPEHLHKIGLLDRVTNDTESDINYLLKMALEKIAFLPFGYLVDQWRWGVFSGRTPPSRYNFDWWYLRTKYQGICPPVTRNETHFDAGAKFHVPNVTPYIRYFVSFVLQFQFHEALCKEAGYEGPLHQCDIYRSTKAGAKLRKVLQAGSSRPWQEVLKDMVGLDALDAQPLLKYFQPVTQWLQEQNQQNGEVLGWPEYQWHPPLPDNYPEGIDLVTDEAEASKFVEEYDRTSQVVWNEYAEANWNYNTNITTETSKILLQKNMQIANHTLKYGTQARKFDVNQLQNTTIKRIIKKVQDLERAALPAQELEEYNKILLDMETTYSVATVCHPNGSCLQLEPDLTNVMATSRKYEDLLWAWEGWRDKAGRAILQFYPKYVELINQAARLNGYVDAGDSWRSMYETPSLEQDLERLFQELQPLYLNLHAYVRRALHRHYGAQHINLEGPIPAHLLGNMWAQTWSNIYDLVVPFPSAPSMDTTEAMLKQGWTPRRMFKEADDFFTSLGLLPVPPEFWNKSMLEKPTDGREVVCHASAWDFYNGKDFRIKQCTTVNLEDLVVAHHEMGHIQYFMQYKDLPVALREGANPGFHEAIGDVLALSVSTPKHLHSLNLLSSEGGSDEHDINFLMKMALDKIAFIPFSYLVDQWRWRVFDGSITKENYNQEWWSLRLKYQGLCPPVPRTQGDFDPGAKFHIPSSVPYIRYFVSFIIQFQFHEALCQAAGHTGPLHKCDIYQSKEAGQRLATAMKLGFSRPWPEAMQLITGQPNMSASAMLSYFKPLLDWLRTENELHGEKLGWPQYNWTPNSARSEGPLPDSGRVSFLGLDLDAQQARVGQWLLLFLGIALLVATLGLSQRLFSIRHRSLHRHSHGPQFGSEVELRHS
Sequence of N-terminal site of human recombinant ACE (P12821 30-1306): as above
Sequence of C-terminal site of human recombinant ACE (P12821 30-1306): as above

Row | Ki [3] [nM] | Ki [4] [nM] | inhibitory power with respect to ACE (ACE) | SMILES | also measured
1 | 60 | 8000 | capable of inhibiting ACE | O=C(NC(CCc1ccccc1)P(=O)(O)C1CCCC1C(=O)NC(CCCc1c[nH]c2ccccc12)C(=O)O)OCc1ccccc1 (centres unmarked) [Pseudopeptide F] | 
2 | 4 | 60 | capable of inhibiting ACE | O=C(NC(Cc1ccccc1)P(=O)(O)C1CCCC1C(=O)N1CCCC1C(=O)O)OCc1ccccc1 (centres unmarked) [Pseudopeptide C] | 
3 | 0.8 | 0.8 |  | CC(NC(=O)CCP(=O)(O)C(Cc1ccccc1)NC(=O)OCc1ccccc1)C(=O)O (centres unmarked) [Pseudopeptide A, reference compound] | 
4 | 60 | 8000 | capable of inhibiting ACE | CC(NC(=O)OCc1ccccc1)P(=O)(O)C1CCCC1C(=O)NC(CCCc1c[nH]c2ccccc12)C(=O)O (centres unmarked) [Pseudopeptide E] | 

The next lines start with the molecule.

Row | SMILES | Ki [3] [nM] | Ki [4] [nM] | inhibitory power with respect to ACE (ACE) | also measured
5 | O=C(NC(Cc1ccccc1)P(=O)(O)C1CCCC1C(=O)NC(Cc1c[nH]c2ccccc12)C(=O)O)OCc1ccccc1 (centres unmarked) [Pseudopeptide G] | 3 | 10000 | shows inhibitory power | effect on the cleavage of the peptide Ac-SDKP ([1]; C57BL6/J mice): no significant effect; reduction of the angiotensin II/angiotensin I ratio measured in the control mice ([2]; 0.9 mg/kg of body weight): 50%; reduction of the angiotensin II/angiotensin I ratio measured in the control mice ([2]; 30 mg/kg of body weight): 90%; degree of protection of bradykinin (cleavage of bradykinin): 9.2%
6 | N=C(N)NCCCC(NC(=O)C1CCCC1P(=O)(O)C(Cc1ccccc1)NC(=O)OCc1ccccc1)C(=O)O (centres unmarked) [Pseudopeptide D] | 9 | 200 | capable of inhibiting ACE | 
7 | CCC[C@H](N[C@@H](C)C(=O)N1[C@H](C(=O)O)C[C@@H]2CCCC[C@@H]21)C(=O)OCC [perindopril, reference compound] |  |  |  | degree of protection of bradykinin (cleavage of bradykinin): 100%
8 | CC(=O)N[C@@H](CC(=O)O)C(=O)N[C@@H](Cc1ccccc1)P(=O)(O)C[C@@H](C)C(=O)N[C@@H](C)C(N)=O [RXP407] |  |  |  | increase of the plasmatic content of Ac-SDKP relative to control mice ([1]; mice): 16 fold; metabolism in vivo [5]: not metabolized; metabolism in vivo [6]: not metabolized; inhibition of the degradation of Ac-SDKP in vivo [7]: capable of inhibiting the degradation
9 | CC(NC(=O)C1CCCC1P(=O)(O)C(Cc1ccccc1)NC(=O)OCc1ccccc1)C(=O)O (centres unmarked) [Pseudopeptide B] | 20 | 450 | capable of inhibiting ACE | 
